# Tests used:
# Format in all cases: functional
# Bacillus pumilus [1] = assay: Antibacterial activity against Bacillus pumilus MTCC 1456 at 100 ug/ml after 18 hr by cup-plate method; conditions: MTCC 1456, 18 h, read-out: DIZ
# Pseudomonas fluorescens [2] = assay: Antibacterial activity against Pseudomonas fluorescens MTCC 2421 after 24 hr by broth dilution method; conditions: MTCC 2421, 24 h
# Bacillus subtilis [3] = assay: Antibacterial activity against Bacillus subtilis MTCC 441 at 200 ug/ml after 18 hr by cup plate method; conditions: MTCC 441, 18 h, read-out: DIZ
# Aspergillus niger [4] = assay: Antifungal activity against Aspergillus niger MTCC 2546 after 24 hr by broth dilution method; conditions: MTCC 2546, 24 h
# Penicillium chrysogenum [5] = assay: Antifungal activity against Penicillium chrysogenum MTCC 161 after 24 hr by broth dilution method; conditions: MTCC 161, 24 h
# Staphylococcus aureus [6] = assay: Antibacterial activity against Staphylococcus aureus MTCC 1430 at 100 ug/ml after 18 hr by cup-plate method; conditions: MTCC 1430, 18 h, read-out: DIZ
# Pseudomonas aeruginosa [7] = assay: Antibacterial activity against Pseudomonas aeruginosa MTCC 424 at 200 ug/ml after 18 hr by cup-plate method; conditions: MTCC 424, 18 h, read-out: DIZ
# Micrococcus luteus [8] = assay: Antibacterial activity against Micrococcus luteus MTCC 1538 at 1000 ug/ml after 18 hr by cup-plate method; conditions: MTCC 1538, 18 h, read-out: DIZ
# Pseudomonas fluorescens [9] = assay: Antibacterial activity against Pseudomonas fluorescens MTCC 2421 at 1000 ug/ml after 18 hr by cup-plate method; conditions: MTCC 2421, 18 h, read-out: DIZ
# Bacillus pumilus [10] = assay: Antibacterial activity against Bacillus pumilus MTCC 1456 at 200 ug/ml after 18 hr by cup-plate method; conditions: MTCC 1456, 18 h, read-out: DIZ
# Bacillus subtilis [11] = assay: Antibacterial activity against Bacillus subtilis MTCC 441 after 24 hr by broth dilution method; conditions: MTCC 441, 24 h
# Pseudomonas aeruginosa [12] = assay: Antibacterial activity against Pseudomonas aeruginosa MTCC 424 at 1500 ug/ml after 18 hr by cup-plate method; conditions: MTCC 424, 18 h, read-out: DIZ
# Aspergillus niger [13] = assay: Antifungal activity against Aspergillus niger MTCC 2546 at 500 ug/ml after 18 hr by cup-plate method; conditions: MTCC 2546, 18 h, read-out: DIZ
# Escherichia coli [14] = assay: Antibacterial activity against Escherichia coli MTCC 1573 at 1000 ug/ml after 18 hr by cup-plate method; conditions: MTCC 1573, 18 h, read-out: DIZ
# Bacillus subtilis [15] = assay: Antibacterial activity against Bacillus subtilis MTCC 441 at 100 ug/ml after 18 hr by cup plate method; conditions: MTCC 441, 18 h, read-out: DIZ
# Aspergillus niger [16] = assay: Antifungal activity against Aspergillus niger MTCC 2546 at 1500 ug/ml after 18 hr by cup-plate method; conditions: MTCC 2546, 18 h, read-out: DIZ
# Bacillus pumilus [17] = assay: Antibacterial activity against Bacillus pumilus MTCC 1456 after 24 hr by broth dilution method; conditions: MTCC 1456, 24 h
# Aspergillus niger [18] = assay: Antifungal activity against Aspergillus niger MTCC 2546 at 1000 ug/ml after 18 hr by cup-plate method; conditions: MTCC 2546, 18 h, read-out: DIZ
# Pseudomonas fluorescens [19] = assay: Antibacterial activity against Pseudomonas fluorescens MTCC 2421 at 500 ug/ml after 18 hr by cup-plate method; conditions: MTCC 2421, 18 h, read-out: DIZ
# Escherichia coli [20] = assay: Antibacterial activity against Escherichia coli MTCC 1573 at 100 ug/ml after 18 hr by cup-plate method; conditions: MTCC 1573, 18 h, read-out: DIZ
# Pseudomonas fluorescens [21] = assay: Antibacterial activity against Pseudomonas fluorescens MTCC 2421 at 200 ug/ml after 18 hr by cup-plate method; conditions: MTCC 2421, 18 h, read-out: DIZ
# Pseudomonas aeruginosa [22] = assay: Antibacterial activity against Pseudomonas aeruginosa MTCC 424 at 1000 ug/ml after 18 hr by cup-plate method; conditions: MTCC 424, 18 h, read-out: DIZ
# Penicillium chrysogenum [23] = assay: Antifungal activity against Penicillium chrysogenum MTCC 161 at 1500 ug/ml after 18 hr by cup-plate method; conditions: MTCC 161, 18 h, read-out: DIZ
# Penicillium chrysogenum [24] = assay: Antifungal activity against Penicillium chrysogenum MTCC 161 at 100 ug/ml after 18 hr by cup-plate method; conditions: MTCC 161, 18 h, read-out: DIZ
# Escherichia coli [25] = assay: Antibacterial activity against Escherichia coli MTCC 1573 after 24 hr by broth dilution method; conditions: MTCC 1573, 24 h
# Pseudomonas aeruginosa [26] = assay: Antibacterial activity against Pseudomonas aeruginosa MTCC 424 at 500 ug/ml after 18 hr by cup-plate method; conditions: MTCC 424, 18 h, read-out: DIZ
# Bacillus pumilus [27] = assay: Antibacterial activity against Bacillus pumilus MTCC 1456 at 1500 ug/ml after 18 hr by cup-plate method; conditions: MTCC 1456, 18 h, read-out: DIZ
# Pseudomonas fluorescens [28] = assay: Antibacterial activity against Pseudomonas fluorescens MTCC 2421 at 100 ug/ml after 18 hr by cup-plate method; conditions: MTCC 2421, 18 h, read-out: DIZ
# Escherichia coli [29] = assay: Antibacterial activity against Escherichia coli MTCC 1573 at 1500 ug/ml after 18 hr by cup-plate method; conditions: MTCC 1573, 18 h, read-out: DIZ
# Staphylococcus aureus [30] = assay: Antibacterial activity against Staphylococcus aureus MTCC 1430 after 24 hr by broth dilution method; conditions: MTCC 1430, 24 h
# Micrococcus luteus [31] = assay: Antibacterial activity against Micrococcus luteus MTCC 1538 at 100 ug/ml after 18 hr by cup-plate method; conditions: MTCC 1538, 18 h, read-out: DIZ
# Bacillus pumilus [32] = assay: Antibacterial activity against Bacillus pumilus MTCC 1456 at 500 ug/ml after 18 hr by cup-plate method; conditions: MTCC 1456, 18 h, read-out: DIZ
# Pseudomonas aeruginosa [33] = assay: Antibacterial activity against Pseudomonas aeruginosa MTCC 424 at 100 ug/ml after 18 hr by cup-plate method; conditions: MTCC 424, 18 h, read-out: DIZ
# Micrococcus luteus [34] = assay: Antibacterial activity against Micrococcus luteus MTCC 1538 after 24 hr by broth dilution method; conditions: MTCC 1538, 24 h
# Bacillus pumilus [35] = assay: Antibacterial activity against Bacillus pumilus MTCC 1456 at 1000 ug/ml after 18 hr by cup-plate method; conditions: MTCC 1456, 18 h, read-out: DIZ
# Micrococcus luteus [36] = assay: Antibacterial activity against Micrococcus luteus MTCC 1538 at 200 ug/ml after 18 hr by cup-plate method; conditions: MTCC 1538, 18 h, read-out: DIZ
# Pseudomonas aeruginosa [37] = assay: Antibacterial activity against Pseudomonas aeruginosa MTCC 424 after 24 hr by broth dilution method; conditions: MTCC 424, 24 h
# Penicillium chrysogenum [38] = assay: Antifungal activity against Penicillium chrysogenum MTCC 161 at 500 ug/ml after 18 hr by cup-plate method; conditions: MTCC 161, 18 h, read-out: DIZ
# Bacillus subtilis [39] = assay: Antibacterial activity against Bacillus subtilis MTCC 441 at 1500 ug/ml after 18 hr by cup plate method; conditions: MTCC 441, 18 h, read-out: DIZ
# Staphylococcus aureus [40] = assay: Antibacterial activity against Staphylococcus aureus MTCC 1430 at 1500 ug/ml after 18 hr by cup-plate method; conditions: MTCC 1430, 18 h, read-out: DIZ
# Penicillium chrysogenum [41] = assay: Antifungal activity against Penicillium chrysogenum MTCC 161 at 200 ug/ml after 18 hr by cup-plate method; conditions: MTCC 161, 18 h, read-out: DIZ
# Aspergillus niger [42] = assay: Antifungal activity against Aspergillus niger MTCC 2546 at 200 ug/ml after 18 hr by cup-plate method; conditions: MTCC 2546, 18 h, read-out: DIZ
# Micrococcus luteus [43] = assay: Antibacterial activity against Micrococcus luteus MTCC 1538 at 500 ug/ml after 18 hr by cup-plate method; conditions: MTCC 1538, 18 h, read-out: DIZ
# Staphylococcus aureus [44] = assay: Antibacterial activity against Staphylococcus aureus MTCC 1430 at 200 ug/ml after 18 hr by cup-plate method; conditions: MTCC 1430, 18 h, read-out: DIZ
# Bacillus subtilis [45] = assay: Antibacterial activity against Bacillus subtilis MTCC 441 at 500 ug/ml after 18 hr by cup plate method; conditions: MTCC 441, 18 h, read-out: DIZ
# Micrococcus luteus [46] = assay: Antibacterial activity against Micrococcus luteus MTCC 1538 at 1500 ug/ml after 18 hr by cup-plate method; conditions: MTCC 1538, 18 h, read-out: DIZ
# Staphylococcus aureus [47] = assay: Antibacterial activity against Staphylococcus aureus MTCC 1430 at 500 ug/ml after 18 hr by cup-plate method; conditions: MTCC 1430, 18 h, read-out: DIZ
# Pseudomonas fluorescens [48] = assay: Antibacterial activity against Pseudomonas fluorescens MTCC 2421 at 1500 ug/ml after 18 hr by cup-plate method; conditions: MTCC 2421, 18 h, read-out: DIZ
# Bacillus subtilis [49] = assay: Antibacterial activity against Bacillus subtilis MTCC 441 at 1000 ug/ml after 18 hr by cup plate method; conditions: MTCC 441, 18 h, read-out: DIZ
# Escherichia coli [50] = assay: Antibacterial activity against Escherichia coli MTCC 1573 at 500 ug/ml after 18 hr by cup-plate method; conditions: MTCC 1573, 18 h, read-out: DIZ
# Staphylococcus aureus [51] = assay: Antibacterial activity against Staphylococcus aureus MTCC 1430 at 1000 ug/ml after 18 hr by cup-plate method; conditions: MTCC 1430, 18 h, read-out: DIZ
# Escherichia coli [52] = assay: Antibacterial activity against Escherichia coli MTCC 1573 at 200 ug/ml after 18 hr by cup-plate method; conditions: MTCC 1573, 18 h, read-out: DIZ
# Penicillium chrysogenum [53] = assay: Antifungal activity against Penicillium chrysogenum MTCC 161 at 1000 ug/ml after 18 hr by cup-plate method; conditions: MTCC 161, 18 h, read-out: DIZ
# Aspergillus niger [54] = assay: Antifungal activity against Aspergillus niger MTCC 2546 at 100 ug/ml after 18 hr by cup-plate method; conditions: MTCC 2546, 18 h, read-out: DIZ
smiles,measurement,setting,value
Cc1cccnc1/N=C/c1cccc2ccccc12,zone of inhibition at 100 µg/mL,Bacillus pumilus [1],13 mm
same,MIC,Pseudomonas fluorescens [2],300 µg/mL
same,zone of inhibition at 200 µg/mL,Bacillus subtilis [3],13 mm
same,MIC,Aspergillus niger [4],200 µg/mL
same,MIC,Penicillium chrysogenum [5],400 µg/mL
same,zone of inhibition at 100 µg/mL,Staphylococcus aureus [6],10 mm
same,zone of inhibition at 200 µg/mL,Pseudomonas aeruginosa [7],13 mm
same,zone of inhibition at 1000 µg/mL,Micrococcus luteus [8],24 mm
same,zone of inhibition at 1000 µg/mL,Pseudomonas fluorescens [9],23 mm
same,zone of inhibition at 200 µg/mL,Bacillus pumilus [10],16 mm
same,MIC,Bacillus subtilis [11],50 µg/mL
same,zone of inhibition at 1500 µg/mL,Pseudomonas aeruginosa [12],18 mm
same,zone of inhibition at 500 µg/mL,Aspergillus niger [13],19 mm
same,zone of inhibition at 1000 µg/mL,Escherichia coli [14],16 mm
same,zone of inhibition at 100 µg/mL,Bacillus subtilis [15],12 mm
same,zone of inhibition at 1500 µg/mL,Aspergillus niger [16],21 mm
same,MIC,Bacillus pumilus [17],200 µg/mL
same,zone of inhibition at 1000 µg/mL,Aspergillus niger [18],20 mm
same,zone of inhibition at 500 µg/mL,Pseudomonas fluorescens [19],22 mm
same,zone of inhibition at 100 µg/mL,Escherichia coli [20],13 mm
same,zone of inhibition at 200 µg/mL,Pseudomonas fluorescens [21],20 mm
same,zone of inhibition at 1000 µg/mL,Pseudomonas aeruginosa [22],16 mm
same,zone of inhibition at 1500 µg/mL,Penicillium chrysogenum [23],18 mm
same,zone of inhibition at 100 µg/mL,Penicillium chrysogenum [24],11 mm
same,MIC,Escherichia coli [25],200 µg/mL
same,zone of inhibition at 500 µg/mL,Pseudomonas aeruginosa [26],14 mm
same,zone of inhibition at 1500 µg/mL,Bacillus pumilus [27],20 mm
same,zone of inhibition at 100 µg/mL,Pseudomonas fluorescens [28],17 mm
same,zone of inhibition at 1500 µg/mL,Escherichia coli [29],19 mm
same,MIC,Staphylococcus aureus [30],400 µg/mL
same,zone of inhibition at 100 µg/mL,Micrococcus luteus [31],16 mm
same,zone of inhibition at 500 µg/mL,Bacillus pumilus [32],18 mm
same,zone of inhibition at 100 µg/mL,Pseudomonas aeruginosa [33],12 mm
same,MIC,Micrococcus luteus [34],200 µg/mL
same,zone of inhibition at 1000 µg/mL,Bacillus pumilus [35],19 mm
same,zone of inhibition at 200 µg/mL,Micrococcus luteus [36],18 mm
same,MIC,Pseudomonas aeruginosa [37],300 µg/mL
same,zone of inhibition at 500 µg/mL,Penicillium chrysogenum [38],15 mm
same,zone of inhibition at 1500 µg/mL,Bacillus subtilis [39],19 mm
same,zone of inhibition at 1500 µg/mL,Staphylococcus aureus [40],20 mm
same,zone of inhibition at 200 µg/mL,Penicillium chrysogenum [41],13 mm
same,zone of inhibition at 200 µg/mL,Aspergillus niger [42],16 mm
same,zone of inhibition at 500 µg/mL,Micrococcus luteus [43],22 mm
same,zone of inhibition at 200 µg/mL,Staphylococcus aureus [44],13 mm
same,zone of inhibition at 500 µg/mL,Bacillus subtilis [45],16 mm
same,zone of inhibition at 1500 µg/mL,Micrococcus luteus [46],26 mm
same,zone of inhibition at 500 µg/mL,Staphylococcus aureus [47],15 mm
same,zone of inhibition at 1500 µg/mL,Pseudomonas fluorescens [48],24 mm
same,zone of inhibition at 1000 µg/mL,Bacillus subtilis [49],18 mm
same,zone of inhibition at 500 µg/mL,Escherichia coli [50],15 mm
same,zone of inhibition at 1000 µg/mL,Staphylococcus aureus [51],18 mm
same,zone of inhibition at 200 µg/mL,Escherichia coli [52],14 mm
same,zone of inhibition at 1000 µg/mL,Penicillium chrysogenum [53],17 mm
same,zone of inhibition at 100 µg/mL,Aspergillus niger [54],13 mm

# Source: ChEMBL document CHEMBL3045835, “Comparative study of conventional and microwave-assisted synthesis of some Schiff bases and their potential as antimicrobial agents” (2012)
